Experimental data taken from article PMC13042944, “Substituent‐Based Modulation of Self‐Assembly and Immunogenicity of Amphipathic Peptides” (Advanced Science, 2026).
Read-outs that look alike come from different tables or passages of the source.

How the values were obtained:
[1] = Negative-stain TEM of self-assembled peptide fibrils (width, length, morphology); assay type: physicochemical; conditions: for fibril width: assembled in water, 10 µM on grid, n = 200 measurements from 30 fibrils; for self-assembly / fibril morphology (in words): in water, identical preparation conditions
Protocol: Peptide solutions (10 µM; diluted in UPW from fibrillated peptide solutions as stated above) were applied directly to 200‐mesh, carbon‐coated copper grids for 2 min and stained with 1% uranyl formate for 1 min. Excess stain and the peptide solution were blotted using filter paper, and grids were washed thrice with UPW. Darkfield images were acquired on a JEOL (Akishima, Japan) JEM‐2100F Field‐Emission STEM microscope at an accelerating voltage of 120 kV.
Individual fibers were selected for measurement, avoiding aggregates. The width of each fiber was measured using the line tool by drawing a line across the fiber's width at an angle approximately perpendicular (90°) to its orientation to ensure accuracy. Similar measurements were done to calculate the length of the fibrils. The start and end points of the line were determined based on the contrast between the fiber and the surrounding background. […]

[2] = comparison values for longer KFE peptides; ref [14], [37]; cited from earlier work
Source text: All the KFE5 peptide SAXS curves fit simple shape models of long polydisperse rods plus smaller globular components (Figure 5A). The characteristics of these rods, extracted from fitting to a Guinier‐plate model, are almost identical with an average rod or tape thickness estimated at 31.9(1) Å (Figure 5B). This is similar to our previously measured values for KFE8 and KFE12 [14, 37]. This thickness, which includes contributions from the solvent layer, matches the β‐sheet sandwich model. This appears to be a common feature of the KFE peptides that is not disrupted by the modification of the ...

[3] = Gelation, rheology (G′, G″) and viscosity of peptide solutions; assay type: physicochemical; conditions: for Gel Formation: 5 mM peptide concentration, in deionized water; for viscosity (in words): 5 mM peptide solutions, shear rate 100 s^-1, n = 4
Protocol: An ARES 2000ex rotational rheometer (TA Instruments, New Castle, DE) was used to evaluate the viscosity and viscoelastic properties of the peptides. Peptides were freshly solubilized in deionized water at 5 mM and allowed to incubate for 10 min to allow for complete solubilization. Next, 170 µL of each peptide solution was pipetted directly onto the rheometer stage. A 20 mm parallel plate geometry was lowered to a gap of 200 µm. Storage modulus (G′) and loss modulus (G″) were measured as a function of strain amplitude of 0.05–50% at an angular frequency of 10 rad/s to determine the linear viscoelastic region. Next, G′ and G″ were measured as a function of angular frequency (1–10 rad/s) at a strain of 1%. […] Separately, a Hagen‐Poiseuille viscometer (microVISC, Rheosense, San Ramon, CA) was used at a shear rate of 1000 s^−1 to validate measured viscosity trends.

[4] = Small-angle X-ray scattering (SAXS) of peptide assemblies; assay type: physicochemical; conditions: 4 mg/mL in deionized water (CN 2 mg/mL), 10°C, Debye‐Bueche fit 0.015–0.10 Å^−1
Protocol: SAXS data of the KFE5 X‐phenyl substituted peptide solutions were collected using a Rigaku (Woodlands, TX) BioSAXS‐1000 camera on an FRE^++ X‐ray generator with an ASC‐96 Automated Sample Changer held at 10°C. A matching buffer was collected for each sample. The detector was calibrated using a silver behenate powder sample, following the manufacturer's recommended procedure. The SAXS samples (KFE5 and its variants) were prepared by dissolving […] of lyophilized peptide in 400 µL of deionized water to produce a final concentration of 4 mg/mL. The samples were then vortexed, and precipitants were removed by centrifugation at […] for 5 min. Although the samples formed gels, these remained fluid under hydrostatic pressure, permitting pipetting by the ASC‐96 liquid handling system. The cyano variant of KFE5 was an exception. It remained a gel at 4 mg/mL and needed to be diluted to 2 mg/mL to be pipetted or flowed in the ASC‐96 liquid sample handling system. Processing was performed in SAXSLab (Rigaku) and SAXNS‐ES (https://xray.utmb.edu/SAXNS). Analyses were performed in Primus/GNOM [81], BIFT [82, 83], and gnuplot (http://www.gnuplot.info).

[5] = Thioflavin T (ThT) fluorescence assay of fibrils; assay type: physicochemical; conditions: 50 µM peptide, ThT 10 µM, ex 440 nm / em 485 nm, n = 4
Protocol: For ThT assays, 50 µM fibrillated peptide solutions (diluted in UPW from fibrillated peptide solutions as stated above) were mixed with 20 µM ThT solution, and fluorescence was monitored at 485 nm upon excitation at 440 nm in a 96‐well plate using a Synergy HT plate reader (Biotek, USA). The OVA‐conjugated peptide fibrils were used to assess long‐term stability over a 7‐day period.

[6] = tested on: mouse bone-marrow dendritic cells (DCs); assay: Cytokine and chemokine release from BMDC cultures treated with nanofibers; assay type: cell-based; conditions: BMDCs treated with peptide nanofibers 10 μM for 24 h, supernatant analysed
Protocol: The femurs and tibiae of mice of C57BL/6 mice were flushed, and single‐cell suspensions were prepared, following removal of red blood cells (RBCs) using lysis buffer (Invitrogen, USA). After washing twice using HBSS (Hanks balanced salt solution), cells were differentiated for 7–9 days in complete Roswell Park Memorial Institute (RPMI) 1640 media containing heat‐inactivated Fetal bovine serum (FBS) (10%), β‐mercaptoethanol (55 µM), sodium pyruvate (1 mM), 10 mM 4‐hydroxyethylpiperazine ethane sulfonic acid (HEPES), 1× MEM (Minimum Essential Medium) non‐essential amino acids, 20 ng/mL granulocyte‐macrophage colony‐stimulating factor (GM‐CSF), 5 ng/mL IL‐4 and 100 µg/mL Penicillin‐Streptomycin (pen‐strep) in 150 mm dish (25 mL/dish) in an incubator at standard conditions (37°C and 5% CO2). Cells were harvested using gentle washing with MEM media between days 7–9 for experiments.
[picture] Figure S16. Cytokines and chemokines production in mouse bone-marrow dendritic cells (DCs) treated with peptide nanofibers (10 μM) for 24 h.

[7] = molecular target: the molecule itself; assay: negative-stain TEM; peptide solutions 10 µM, diluted in ultrapure water from fibrillated 1 mM stocks, on carbon-coated copper grids, 1% uranyl formate

Molecule	fibril width [1]	self-assembly / fibril morphology (in words) [1]	Gel Formation [3]	viscosity (in words) [3]	binding result [7]	also measured
CC(=O)N[C@@H](Cc1ccccc1)C(=O)N[C@@H](CCCCN)C(=O)N[C@@H](Cc1ccccc1)C(=O)N[C@@H](CCC(=O)O)C(=O)N[C@@H](Cc1ccccc1)C(=O)N[C@@H](CCCCN)C(=O)N[C@@H](Cc1ccccc1)C(=O)N[C@@H](CCC(=O)O)C(N)=O [KFE8, reference compound]	8–10 nm	thin nanofibrils				gel inhomogeneity‐correlation length (ζ) [2]: 25 Å
Ac-FKFEF-NH2 [KFE5, Ac‐FKFEF‐Am]	50–100 nm	broader tape‐like structures	No	highest viscosity among the non‐gelling derivatives		gel inhomogeneity‐correlation length (ζ) [4]: about 58 Å
Ac-YKYEY-NH2 [KFE5(OH)]		complete ablation	No	lowest viscosities		storage modulus G′, fold lower than parent peptide ([3]; 5 mM peptide, strain 1%, angular frequency 10 rad/s, n = 3): approximately 2.5 fold; ThT fluorescence intensity (in words) [5]: lowest and comparable to ThT alone; cytokine and chemokine release profile (in words) [6]: release of MIP‐1α and MIP‐1β without TNF‐α secretion
Ac-FKFEF-NH2 (designed amphipathic pentapeptide, truncated variant of KFE8; also called KFE5(H); source: synthetic peptide (Fmoc-SPPS on Rink Amide resin, HPLC purified)) [KFE5 (Ac-FKFEF-Am)]					binds	
Ac-FKFEFKFE-NH2 (designed amphipathic octapeptide; also called double repeat of FKFE) [KFE8 (Ac-FKFEFKFE-Am)]					binds	
